Measured values reported in US11891625B2, “Methods and compositions relating to hematopoietic stem cell expansion, enrichment, and maintenance” (CHILDREN'S MEDICAL CENTER CORPORATION, priority 2015, dated 2024).

Key:
[1] = test system: murine HSCs (Lineage- Sca1+ ckit+ CD34-Flk2- CD150+ Fgd5 ZsGr+); assay: Ex vivo culture of 20 murine HSCs for 7 or 14 days (imaging, FACS of phenotypic HSCs); assay type: cell-based; conditions: 7 or 14 days ex vivo, versus DMSO
Procedure: Images taken at 4× magnification.
FIGS. 9A-9B show the expansion of phenotypic murine HSCs for 14 days ex vivo. 20 murine HSCs (Lineage− Sca1+ ckit+ CD34−Flk2−CD150+Fgd5⋅ZsGr+) were cultured in the presence of DMSO, LSD1 inhibitor IV (LS), Tgfbeta inhibitor RepSox (RS), and the combination of both (C2) for 14 days. This method supports maintenance and expansion of ZsGr+ HSCs. […] FIG. 9B depicts the number of Lineage− Sca1+ ckit+ CD34−Flk2−CD150+Fgd5⋅ZsGr+ HSCs in each condition after 14 days of ex vivo culture.
An optimal combination of compounds that can be used to expand, enrich, and maintain the hematopoietic stem cell functional potential of hematopoietic stem cells includes a histone demethylase inhibitor and an inhibitor of the TGFβ receptor Alk5. […] Images taken at 4× magnification. […] FIGS. 9A-9B show the expansion of phenotypic HSCs for 14 days ex vivo. 20 murine HSCs (LSK34-Flk2-150+ZsGr+) were cultured in the presence of DMSO, LSD1 inhibitor IV (LS), Tgfbeta inhibitor RepSox (RS), and the combination of both (C2) for 14 days. This method supports maintenance and expansion of ZsGr+ HSCs. […] FIG. 9B: Number of ZsGr+ HSCs in each condition after 14 days of ex vivo culture. […] A) Bright-field and ZsGr images of 20 HSCs cultured for 4.5 days ex vivo in the presence of LSD1 inhibitor IV (LS), Tgfbeta inhibitor RepSox (RS), and the combination of both (C2). […]

ZsGr+ murine HSCs = assay: 4.5 day ex vivo culture of 20 Fgd5 ZsGr+ HSCs (frequency and number of ZsGr+ cells); assay type: cell-based; conditions: 4.5 days ex vivo culture
Description: FIG. 10A depicts bright-field and ZsGr images of 20 Fgd5⋅ZsGr+ HSCs cultured for 4.5 days ex vivo in the presence of LSD1 inhibitor IV (LS), Tgfbeta inhibitor RepSox (RS), and the combination of both (C2). […] FIG. 10C depicts the number of ZsGr+ and ZsGr− cells after 4.5 day cultures.
An optimal combination of compounds that can be used to expand, enrich, and maintain the hematopoietic stem cell functional potential of hematopoietic stem cells includes a histone demethylase inhibitor and an inhibitor of the TGFβ receptor Alk5. […] Images taken at 4× magnification. […] FIGS. 9A-9B show the expansion of phenotypic HSCs for 14 days ex vivo. 20 murine HSCs (LSK34-Flk2-150+ZsGr+) were cultured in the presence of DMSO, LSD1 inhibitor IV (LS), Tgfbeta inhibitor RepSox (RS), and the combination of both (C2) for 14 days. This method supports maintenance and expansion of ZsGr+ HSCs. […] FIG. 9B: Number of ZsGr+ HSCs in each condition after 14 days of ex vivo culture. […] A) Bright-field and ZsGr images of 20 HSCs cultured for 4.5 days ex vivo in the presence of LSD1 inhibitor IV (LS), Tgfbeta inhibitor RepSox (RS), and the combination of both (C2). FIG. 10B: Frequency of ZsGr+ cells remaining following 4.5 days of ex vivo culture. FIG. 10C: Number of ZsGr+ (Green) and ZsGr− (Black) cells within 4.5 day cultures (See also FIGS. 11A-13F and 28A-32B).

human cord blood HSCs = assay: In vitro colony forming assay of human cord blood HSCs after 14 days of ex vivo culture; assay type: cell-based; conditions: 14 day cord blood HSC cultures
Procedure: FIG. 30A depicts colony counts and composition adjusted to represent the entire well following 14 days of ex vivo culture (Note: only a fraction of the well was added to methocult for colony formation). FIG. 30B depicts the frequency of myeloid colony types from 14 day cord blood HSC cultures.

[2] = test system: murine HSCs (lineage-, ckit+, Sca1+, CD150+, CD48-, Fgd5ZsGr+); assay: Culture of 40 murine HSCs for 12 days with compound cocktail plus RG108 and/or UNC0638, flow cytometry; assay type: cell-based; conditions: cytokines plus cocktail incl. trichostatin A, plus either or both RG108 and UNC0638
Procedure: 40 murine HSCs (lineage−, ckit+, Sca1+, CD150+, CD48−, Fgd5ZsGr+) were cultured for 12 days in the presence of cytokines (SCF, TPO, and IL12) and a cocktail of compounds (Lithium chloride, nicotinamide, N-acetylcysteine, ascorbic acid, A83-01, and SB203580, trichostatin A) plus either or both DNA methyltransferase inhibitor (RG108) and G9a inhibitor (UNC0638). Flow cytometry plots of Fgd5+Lineage− cells from the indicated culture conditions are shown.
A series of experiments was conducted in order to determine the relative contribution of compounds that modulate particular pathways to the expansion of hematopoietic stem cells. FIGS. 21A-21B show the contribution of each compound/pathway in ability to maintain and expand phenotypic HSCs during ex vivo culture. […] 200 cord blood HSCs were cultured for 12 days in serum free media supplemented with cytokines (SCF, TPO, FLT3L, IL3) in the presence of the indicated chemical combinations (Tgfbeta inhibitor (A, A83-01), HDAC inhibitor (TSA, Trichostatin A), and LSD1 inhibitor (TC, Tranylcypromine)) or additionally supplemented with p38 inhibitor (p38i, SB203580) and analyzed by flow cytometry. FIG. 35A: Immunophenotype of the cells post-culturing, and FIG. 35B: quantification of immunophenotypic HSCs (Lineage− CD34+ CD45RA−CD38− CD90+CD49F+) cultured in the indicated conditions.

[3] = test system: human mobilized peripheral blood CD34+ cells; assay: Culture of 3000 CD34+ enriched mobilized peripheral blood cells for 7 days with chemicals or combinations, flow cytometry; assay type: cell-based; conditions: combinations with A83-01, Tranylcypromine, SB203580
Procedure: 3000 CD34+ enriched mobilized peripheral blood cells were cultured for 7 days in serum free media supplemented with cytokines (SCF, TPO, FLT3L, IL3) in the presence of the indicated chemical combinations (Tgfbeta inhibitor (A, A83-01), pan-HDAC inhibitor (TSA, Trichostatin A), LSD1 inhibitor (TC, Tranylcypromine), p38 inhibitor (p38i, SB203580), HDAC1/2 inhibitor (Rom, Romidepsin)) and analyzed by flow cytometry. FIG. 41A depicts the immunophenotype of the cells, FIG. 41B depicts the percentage of indicated populations, and FIG. 41C depicts quantification of immunophenotypic HSCs (Lineage− CD34+ CD45RA−CD38− CD90+CD49F+) 7 days post-culturing in the indicated conditions.
3000 CD34+ enriched mobilized peripheral blood cells were cultured for 7 days in serum free media supplemented with cytokines (SCF, TPO, FLT3L, IL3) in the presence of the indicated chemical combinations (Tgfbeta inhibitor (A, A83-01), pan-HDAC inhibitor (TSA, Trichostatin A), LSD1 inhibitor (TC, Tranylcypromine), p38 inhibitor (p38i, SB203580), HDAC1/2 inhibitor (Rom, Romidepsin)) and analyzed by flow cytometry. FIG. 41A: immunophenotype of the cells, FIG. 41B: percentage of indicated populations, and FIG. 41C: quantification of immunophenotypic HSCs (Lineage− CD34+ CD45RA− CD38− CD90+CD49F+) 7 days post-culturing in the indicated conditions.

p38 MAPK = conditions: as described in U.S. Pat. No. 6,602,896; cited from earlier work
[4] = test system: human CD34+ peripheral blood and cord blood hematopoietic stem cells; conditions: as described in the cited literature; cited from earlier work
[5] = test system: murine HSCs (lineage-, ckit+, Sca1+, CD150+, CD48-, Fgd5ZsGr+); assay: Culture of 100 murine HSCs with compound cocktail plus VPA or TSA, day 7 flow cytometry; assay type: cell-based; conditions: cytokines plus cocktail (Lithium chloride, nicotinamide, N-acetylcysteine, ascorbic acid, A83-01, SB203580)
Procedure: 100 murine HSCs (lineage−, ckit+, Sca1+, CD150+, CD48−, Fgd5ZsGr+) were cultured in the presence of cytokines only (SCF, TPO, and IL12) in the absence of compounds (Standard), or additionally supplemented with a cocktail of compounds (Lithium chloride, nicotinamide, N-acetylcysteine, ascorbic acid, A83-01, and SB203580) plus either valproic acid (VPA) or trichostatin A (TSA), which are structurally distinct HDAC inhibitors. FIG. 22A depicts day 7 flow cytometric analysis and FIG. 22B depicts the proportion of Fgd5−ZsGreen+ Sca1+ cells for each replicate.
In addition to inhibitors of histone demethylation and TGFβ signaling, histone deacetylase inhibitors also promote the expansion, enrichment, and maintenance of hematopoietic stem cells ex vivo. […] 3000 CD34+ enriched mobilized peripheral blood cells were cultured for 7 days in serum free media supplemented with cytokines (SCF, TPO, FLT3L, IL3) in the presence of the indicated chemical combinations (Tgfbeta inhibitor (A, A83-01), pan-HDAC inhibitor (TSA, Trichostatin A), LSD1 inhibitor (TC, Tranylcypromine), p38 inhibitor (p38i, SB203580), HDAC1/2 inhibitor (Rom, Romidepsin)) and analyzed by flow cytometry. […]

For `CN1CCN(C(=O)CN[C@@H]2C[C@H]2c2ccc(OCc3ccccc3)cc2)CC1` [LS], the “appearance of cultures (images at 4x magnification)” value [1] was “more homogenous and less differentiated”, the “maintenance and expansion of ZsGr+ HSCs” value (ZsGr+ murine HSCs) was “supports maintenance and expansion of ZsGr+ murine HSCs” and the “frequency of GEMM colonies” value (human cord blood HSCs) was “elevated frequency of most primitive GEMM colonies”.
With `O=C(O)[C@H](Cc1c[nH]c2ccccc12)N1C(=O)c2ccccc2C1=O` [RG108, N-Phthalyl-L-tryptophan] the “heterogeneity of Fgd5 ZsGr+ cells with respect to CD48 and Sca1 expression” value [2] was “reduces heterogeneity”.
With `Cc1cccc(-c2n[nH]cc2-c2ccc3ncccc3n2)n1` [RS] the “maintenance and expansion of ZsGr+ HSCs” value (ZsGr+ murine HSCs) was “supports maintenance and expansion of ZsGr+ murine HSCs” and the “frequency of GEMM colonies” value (human cord blood HSCs) was “elevated frequency of most primitive GEMM colonies”.
With `C/C=C1\NC(=O)[C@H]2CSSCC/C=C/[C@H](CC(=O)N[C@H](C(C)C)C(=O)N2)OC(=O)[C@H](C(C)C)NC1=O` [Romidepsin] the “replacement of pan HDAC inhibitor in chemical combination for maintenance/expansion of human HSCs” value [3] was “can replace the pan HDAC inhibitor Trichostatin A for efficient ex vivo maintenance/expansion of human HSCs”.
For `Oc1ccc(-c2nc(-c3ccc(F)cc3)c(-c3ccncc3)[nH]2)cc1` [SB202190, 4(4-Fluorophenyl)-2-(4-hydroxyphenyl)-5-(4-pyridyl) 1H-imidazole], the “selectivity among p38 MAPK isoforms” value (p38 MAPK) is listed as “selectively antagonize p38 MAPK α- and β-isoforms without disrupting the enzymatic activity of the γ- or δ-isoforms”.
In the case of `CC(C)n1cnc2c(NCCc3ccc(O)cc3)nc(-c3csc4ccccc34)nc21` [SR1], the “expansion and self-renewal of human CD34+ hematopoietic stem cells” value [4] is given as “promotes expansion and self-renewal of human CD34+ peripheral blood and cord blood hematopoietic stem cells”.
With `COc1cc2c(NC3CCN(C(C)C)CC3)nc(C3CCCCC3)nc2cc1OCCCN1CCCC1` [UNC0638] the “heterogeneity of Fgd5 ZsGr+ cells with respect to CD48 and Sca1 expression” value [2] was “reduces heterogeneity”.
With `CC(/C=C/C(=O)NO)=C\[C@@H](C)C(=O)c1ccc(N(C)C)cc1` [trichostatin A] the “maintenance of immunophenotypic HSCs by structurally distinct HDAC inhibitors” value [5] was “function equivalently to maintain immunophenotypic HSCs”.
For `CCCC(CCC)C(=O)O` [valproic acid], the “maintenance of immunophenotypic HSCs by structurally distinct HDAC inhibitors” value [5] was “function equivalently to maintain immunophenotypic HSCs”.
